From patent US20040167330A1, “Novel chelating agents and conjugates thereof, their synthesis and use as diagnois and therapeutic agents” (priority 2004, published 2004) come the findings set out here.

Common to all, as to assay type: physicochemical
Data set [1] can be described thus: Relaxation measurements of gadolinium(III) complex solutions. The settings on record: at 10 MHz. As to the method:
Solution was stirred for 1 h at room temperature and pH was set to approx. pH 7 by careful addition of solid KOH. Thus prepared solution as well as other solutions of different concentration which were prepared by a similar approach (all containing known amount of water and gadolinium(III)) were used for relaxation measurements. The solutions gave relaxivity 7.86 mmol^−1 s^−1 (at 10 MHz).
Solution of gadolinium(III) complex of compound 1 for relaxation measurements were prepared similarly to Example 51. The solutions gave relaxivity 7.54 mmol-1 s^−1 (at 10 MHz). Exchange half-life of coordinated water molecule 70 ns was determined (from temperature dependence of ^17O NMR parameters).

Data set [2] can be described thus: Formation of ^90Y-yttrium complex, radiochemical yield by TLC/HPLC. The note with it: for radiochemical yield: 25° C. Here is the method: Purified DO3A-P^BnNH2 was dissolved in demineralised water at a concentration of 9×10^−5 mol/l. 0.1 ml of this solution were transferred into a small reaction vial (PE). 0.1 ml ^90Y-yttrium chloride (YCl3) in 0.1 M HCl and 0.1 ml ammonium acetate buffer, pH 5.7, were added. The reaction solutions were mixed well. pH values were measured continuously while preparing the solution. 24 identical solutions were prepared accordingly and stored at 25° C. and 37° C. respectively.
Samples were taken after 15 min, 30 min, 45 min, 60 min, 90 min and 120 min and analyzed by thin layer chromatography using silica gel (POLYGRAM SIL G/UV254) or, preferably, paper (Whatman No. 1) as solid phase. TLC was run using either solvent I: 0.1 N ammonium acetate solution or solvent II: 3% sodium chloride solution as developing solution. In parallel, samples (20 μl) were analyzed by gel filtration using HPLC. The HPLC-system comprised a gamma detector (Berthold LB 506) and a UV/VIS spectrometer (Waters 486) installed in two flow through cells, respectively.
Temperature- and time-dependent studies have shown a very short reaction time for the complex formation of a ^90Y-Yttrium-DO3A-complex.
Furthermore, the effect of pH and ligand concentration on radiochemical yield was evaluated. Table 5 summarizes the results relating to the variation of pH between pH 2.0 and pH 8.9 while maintaining a constant ratio of DO3A-P^BnNH2 and Y of 3:1 and a reaction time of 60 min at 25° C. Accordingly, best labeling results are achieved at pH values of 4.9-8.0. Table 6 summarizes the results relating to the variation of the ligand concentration DO3A-P^BnNH2: Y between 1:1 up to 7:1 while maintaining a constant pH range (pH 5.2) and reaction time of 60 min at 25° C.

Experiment in data set [3]: as above
The settings on record: reaction time 0 min; 25° C.; [Y] = 1,2 · 10^−3 mol/l; ratio of ligand: Y = 1:1; pH = 5.5.

For “Gadolinium(III) Complex of DO3A-P [gadolinium(III) complex of compound 1]”, the relaxivity in data set [1] (gadolinium(III) complex in solution) was found to be 7.54 mmol⁻¹ s⁻¹.

For the molecule `Nc1ccc(CP(=O)(O)CN2CCN(CC(=O)O)CCN(CC(=O)O)CCN(CC(=O)O)CC2)cc1` [Compound 11], the “pH values at which best labeling results are achieved” value in data set [2] (^90Y, ratio of DO3A-P^BnNH2 and Y of 3:1, reaction time of 60 min at 25° C., pH varied 2.0 to 8.9) is listed as 4.9-8.0. Moreover, the radiochemical yield is recorded as 94% in data set [2] (ratio of ligand:Y 1:1, [Y] = 1.2 · 10^−3 mol/l, pH = 5.2, reaction time 60 min); 97% in data set [2] (reaction time 15 min, [Y] = 1,2 · 10^−3 mol/l, ratio of ligand: Y = 1:1, pH = 5.5); 88% in data set [3]. In data set [1] (gadolinium(III) complex prepared in solution from GdCl3.6H2O, approx. pH 7), the relaxivity was 7.86 mmol⁻¹ s⁻¹.
